Source: patent US10448639B2, “Fungicidal pyrazoles” (FMC CORPORATION, priority 2009, dated 2019)

Experiments:
[1] = tested on: Alternaria solani; test: Test C: tomato early blight, preventive spray on tomato seedlings, visual disease rating; settings: tomato early blight, 100 = 100% disease control; for Test C disease control rating: 0 = no disease control relative to controls
[2] = tested on: Botrytis cinerea; test: Test B: tomato Botrytis, preventive spray on tomato seedlings, visual disease rating; settings: tomato Botrytis, 100 = 100% disease control; for Test B disease control rating: 0 = no disease control relative to controls
[3] = tested on: Puccinia recondita f. sp. tritici; test: Test H: wheat leaf rust, curative spray on inoculated wheat seedlings, visual disease rating; settings: wheat leaf rust, 100 = 100% disease control; for Test H rating (% disease control): curative, 0 = no control relative to controls; for Test H disease control rating: sprayed after inoculation, 0 = no disease control relative to controls
[4] = tested on: Puccinia recondita f. sp. tritici; test: Test I: wheat leaf rust, preventive spray on wheat seedlings, visual disease rating; settings: wheat leaf rust, 100 = 100% disease control; for Test I disease control rating: sprayed the day before inoculation, 0 = no disease control relative to controls
[5] = tested on: Septoria nodorum; test: Test F: Septoria glume blotch, preventive spray on wheat seedlings, visual disease rating; settings: 100 = 100% disease control; for Test F disease control rating: 0 = no disease control relative to controls
[6] = tested on: Erysiphe graminis f sp. tritici; test: Test J: wheat powdery mildew, preventive spray on wheat seedlings, visual disease rating; settings: wheat powdery mildew, 100 = 100% disease control; for Test J disease control rating: sprayed the day before inoculation, 0 = no disease control relative to controls
[7] = tested on: Septoria tritici; test: Test G: wheat leaf blotch, preventive spray on wheat seedlings, visual disease rating; settings: wheat leaf blotch, 100 = 100% disease control
[8] = 0 = no control relative to controls
[9] = preventive, 0 = no control relative to controls
[10] = Septoria glume blotch, 0 = no control relative to controls
[11] = preventive spray, 0 = no control
[12] = Septoria glume blotch on wheat, preventive spray, 0 = no control

Row | SMILES | Test C rating (% disease control) [1, 8] | Test B rating (% disease control) [2, 8] | Test H rating (% disease control) [3] | Test C rating (% disease control) [1, 11] | Test B rating (% disease control) [2, 11] | Test I rating (% disease control) [4, 11] | Test F rating (% disease control) [5, 12] | Test J rating (% disease control) [6, 11] | further results
1 | COc1ccc(-c2c(C)nn(C)c2Nc2ccc(Cl)cc2Cl)c(Cl)c1 [compound 282] | 98% | 99% | 0% |  |  |  |  |  | Test I rating (% disease control) [4, 9]: 99%; Test F rating (% disease control) [5, 10]: 0%; Test J rating (% disease control) [6, 8]: 100%
2 | Cc1nn(C)c(Nc2c(Cl)cc(Br)cc2Cl)c1-c1ccc(F)cc1Cl [compound 403] |  |  |  |  |  |  |  |  | Test C disease control rating [1]: 0%; Test B disease control rating [2]: 99%; Test H disease control rating [3]: 99%; Test I disease control rating [4]: 100%; Test F disease control rating ([5]; Septoria glume blotch on wheat): 0%; Test J disease control rating [6]: 99%
3 | Cc1nn(C)c(Nc2c(Cl)cc(F)cc2Cl)c1-c1ccc(F)cc1Br [compound 316] |  |  |  |  |  |  |  |  | Test C disease control rating [1]: 0%; Test B disease control rating [2]: 99%; Test H disease control rating [3]: 9%; Test I disease control rating [4]: 99%; Test F disease control rating ([5]; Septoria glume blotch on wheat): 0%; Test J disease control rating [6]: 96%
4 | COc1cc(F)c(-c2c(C)nn(C)c2Oc2ccc(Br)c(OC)c2)c(F)c1 [compound 212] | 17% | 0% | 0% |  |  |  |  |  | Test G rating (% disease control) [7, 8]: 98%
5 | Cc1nn(C)c(Oc2ccc(C#N)cc2Cl)c1-c1ccc(F)cc1Br [compound 285] | 0% | 98% | 9% |  |  |  |  |  | Test I rating (% disease control) [4, 9]: 99%; Test F rating (% disease control) [5, 10]: 60%; Test J rating (% disease control) [6, 8]: 99%
6 | Cc1ccc(Nc2c(-c3c(F)cc(C#N)cc3F)c(C)nn2C)cc1 [compound 124] |  |  |  | 78% | 100% | 96% | 60% | 94% | Test G rating (% disease control) [7, 11]: 99%
7 | Cc1nn(C)c(C(O)c2c(F)ccc(F)c2F)c1-c1ccc(F)cc1Cl (racemic) [compound 356] |  |  |  |  |  |  |  |  | Test C disease control rating [1]: 0%; Test B disease control rating [2]: 100%; Test H disease control rating [3]: 100%; Test I disease control rating [4]: 100%; Test F disease control rating ([5]; Septoria glume blotch on wheat): 0%; Test J disease control rating [6]: 0%
8 | COc1ccc(Oc2c(-c3ccc(F)cc3Cl)c(C)nn2C)c(F)c1 [compound 21] |  |  |  | 100% | 98% | 100% | 97% | 99% | 
9 | COc1ccc(-c2c(C)nn(C)c2Oc2ccc(Cl)cc2)c(F)c1 [compound 15] |  |  |  | 67% | 99% | 98% | 73% | 99% | Test G rating (% disease control) [7, 11]: 99%
10 | Cc1nn(C)c(Nc2ccc(Cl)cc2Cl)c1-c1c(F)cccc1Cl [compound 283] | 65% | 99% | 9% |  |  |  |  |  | Test I rating (% disease control) [4, 9]: 99%; Test F rating (% disease control) [5, 10]: 0%; Test J rating (% disease control) [6, 8]: 100%
11 | Cc1nn(C)c(Nc2ccc(Cl)c(F)c2)c1-c1c(F)cc(C#N)cc1F [compound 125] |  |  |  | 67% | 100% | 92% | 60% | 0% | Test G rating (% disease control) [7, 11]: 99%
